From US20250051338A1, “TYK2 DEGRADERS AND USES THEREOF” (Kymera Therapeutics, Inc., priority 2021, published 2025)

Legend:
Format in all cases: cell-based
TYK2 [1] = target: T1, TYK2 (Homo sapiens, UniProt P29597); assay: TYK2 degradation MSD assay in OCI-LY10 cells; set-up: endogenous in cells; host or cells: EBV-B cells; settings: 4 to 24 hours incubation, read-out: TYK2 MSD DC50 rating in OCI-LY10
Summary of the method: (§1)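 Cells (0.4 million per well) were treated with a 9-point, 1:3 compound series from a top concentration of 1 to 10 μM for 4 to 24 hours at 37° C, then lysed in RIPA with protease/phosphatase inhibitors. Remaining TYK2 was quantified by sandwich MSD immunoassay; DC50 came from four-parameter nonlinear fits.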

TYK2 [2] = target: T1, TYK2; assay: TYK2 degradation MSD assay in human PBMC cells; set-up: endogenous in cells; host or cells: human PBMC; settings: 4 to 24 hours incubation, read-out: TYK2 MSD DC50 rating in human PBMC
Summary of the method: as §1

TYK2 [3] = target: T1, TYK2; assay: TYK2 degradation MSD assay in EBV-B cells; set-up: endogenous in cells; host or cells: EBV-B cells; settings: 4 to 24 hours incubation, read-out: TYK2 MSD DC50 rating in EBV-B
Summary of the method: as §1

T1 sequence (P29597 whole entry): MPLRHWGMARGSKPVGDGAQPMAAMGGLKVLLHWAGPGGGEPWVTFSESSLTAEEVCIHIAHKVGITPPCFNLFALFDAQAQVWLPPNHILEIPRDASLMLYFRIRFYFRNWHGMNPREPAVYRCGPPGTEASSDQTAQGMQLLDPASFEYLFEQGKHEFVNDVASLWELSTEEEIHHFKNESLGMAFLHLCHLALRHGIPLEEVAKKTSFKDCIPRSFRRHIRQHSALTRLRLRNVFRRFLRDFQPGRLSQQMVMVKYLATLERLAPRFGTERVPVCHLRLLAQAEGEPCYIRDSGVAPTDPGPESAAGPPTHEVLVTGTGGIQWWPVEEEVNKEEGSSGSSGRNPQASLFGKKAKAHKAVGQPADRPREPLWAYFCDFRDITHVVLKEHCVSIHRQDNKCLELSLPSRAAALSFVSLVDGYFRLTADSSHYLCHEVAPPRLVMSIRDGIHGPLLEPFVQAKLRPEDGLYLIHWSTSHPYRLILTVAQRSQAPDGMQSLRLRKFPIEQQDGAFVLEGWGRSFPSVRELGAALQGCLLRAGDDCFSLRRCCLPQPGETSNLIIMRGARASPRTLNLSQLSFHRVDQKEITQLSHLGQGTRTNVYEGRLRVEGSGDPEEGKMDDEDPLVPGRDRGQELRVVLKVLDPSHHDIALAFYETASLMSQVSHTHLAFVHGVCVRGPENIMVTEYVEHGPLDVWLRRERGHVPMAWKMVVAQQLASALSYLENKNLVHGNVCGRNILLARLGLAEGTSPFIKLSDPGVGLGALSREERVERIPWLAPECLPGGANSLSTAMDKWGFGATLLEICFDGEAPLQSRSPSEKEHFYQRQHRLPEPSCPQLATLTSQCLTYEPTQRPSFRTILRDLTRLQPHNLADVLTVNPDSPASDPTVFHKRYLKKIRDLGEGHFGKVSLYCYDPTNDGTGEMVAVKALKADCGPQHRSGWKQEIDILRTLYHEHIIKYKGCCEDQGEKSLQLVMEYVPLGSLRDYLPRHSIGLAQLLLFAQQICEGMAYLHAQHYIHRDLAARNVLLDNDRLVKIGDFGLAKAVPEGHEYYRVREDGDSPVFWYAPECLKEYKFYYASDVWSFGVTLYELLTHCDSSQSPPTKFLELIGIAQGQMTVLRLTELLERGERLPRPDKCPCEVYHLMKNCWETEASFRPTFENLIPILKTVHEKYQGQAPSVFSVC

DC50 (TYK2 [1]) [nM]	DC50 (TYK2 [2]) [nM]	DC50 (TYK2 [3]) [nM]	SMILES
> 100	> 100	> 100	CNc1cc(-c2cccc(C(=O)NCCCCc3ccc4c(c3)n(C)c(=O)n4C3CCC(=O)NC3=O)c2)nn2c(C(=O)N[C@@H]3C[C@@H]3F)cnc12 (stereo partly drawn) [Example K307]
1 to 10	> 100	> 100	CNc1cc(Nc2cccc(N3CCC(CN4CCN(c5ccc(-c6ccc7c(c6)n(C)c(=O)n7C6CCC(=O)NC6=O)cc5)CC4)CC3)c2OC)nn2c(C(=O)N[C@@H]3C[C@@H]3F)cnc12 (stereo partly drawn) [Example K619]
> 100	> 100	> 100	Cn1c(=O)n(C2CCC(=O)NC2=O)c2ccc(CCCCNC(=O)c3ccc(-n4cccc(Nc5ccc6ncc(C(=O)N[C@@H]7C[C@@H]7F)n6n5)c4=O)nc3)cc21 (stereo partly drawn) [Example K325]
< 1	> 100	> 100	CNc1cc(-c2ccc(-c3ccc(CN4CCC(N5CC(N6CCN(c7ccc8c(c7)n(C)c(=O)n8C7CCC(=O)NC7=O)CC6)C5)CC4)cn3)cc2)nn2c(C(=O)N[C@@H]3C[C@@H]3F)cnc12 (stereo partly drawn) [Example K480]
> 100	< 1	< 1	CNC(=O)c1cnc(Nc2ccc(C(=O)NCCCCCCc3cccc4c3n(C)c(=O)n4C3CCC(=O)NC3=O)cn2)cc1Nc1cccc(-c2ncc(F)cn2)c1OC (stereo not drawn) [Example K115]
> 100	> 100	> 100	Cn1c(=O)n(C2CCC(=O)NC2=O)c2cccc(C#CCN3CCN(Cc4ccc(-c5cccc(Nc6ccc7ncc(C(=O)NC8CC8)n7n6)c5)nc4)CC3)c21 (stereo not drawn) [Example K433]
< 1	> 100	> 100	CNc1cc(N2CCc3c(N4CCN(C5CC6(CCN(c7ccc8c(c7)n(C)c(=O)n8C7CCC(=O)NC7=O)CC6)C5)CC4)cccc32)nn2c(C(=O)N[C@@H]3C[C@@H]3F)cnc12 (stereo partly drawn) [Example K646]
> 100	> 100	1 to 10	CCNC(=O)c1cnc(Nc2cc(CN3CCN(c4ccc5c(c4)n(C)c(=O)n5C4CCC(=O)NC4=O)CC3)ccn2)cc1Nc1cccc(-c2ncc(F)cn2)c1OC (stereo not drawn) [Example K709]
< 1	> 100	> 100	CNc1cc(Nc2cccc(-c3ccc(CN4CCN(CC#Cc5cccc6c5n(C)c(=O)n6C5CCC(=O)NC5=O)CC4)cn3)c2)nn2c(C(=O)N[C@@H]3C[C@@H]3F)cnc12 (stereo partly drawn) [Example K432]
> 100	> 100	> 100	CNc1cc(Nc2cccc(CN3CCN(c4cccc5c4n(C)c(=O)n5C4CCC(=O)NC4=O)CC3)c2)nn2c(C(=O)NC3CC3)cnc12 (stereo not drawn) [Example K594]
10 to 100	1 to 10	> 100	CNc1cc(Nc2ccccc2C(=O)NCCCCCCc2cccc3c2n(C)c(=O)n3C2CCC(=O)NC2=O)nn2c(C(=O)N[C@@H]3C[C@@H]3F)cnc12 (stereo partly drawn) [Example K257]
> 100	> 100	> 100	CNc1cc(N2CCc3c(-c4ccc(CN5CCN(c6ccc(-c7cccc8c(N9CCC(=O)NC9=O)cncc78)cc6)CC5)cn4)cccc32)nn2c(C(=O)N[C@@H]3C[C@@H]3F)cnc12 (racemic) [Example K546]
< 1	> 100	> 100	CNc1cc(Nc2cccn(-c3ccc(C(=O)NC4CCC(CN(C)CC5CCN(Cc6ccc7c(c6)n(C)c(=O)n7C6CCC(=O)NC6=O)CC5)CC4)cn3)c2=O)nn2c(C(=O)N[C@@H]3C[C@@H]3F)cnc12 (stereo partly drawn) [Example K447]
> 100	> 100	> 100	CNc1cc(Nc2cccc(C3CCN(CC4CCN(c5ccc(-c6cccc7c6n(C)c(=O)n7C6CCC(=O)NC6=O)cc5)CC4)CC3)c2OC)nn2c(C(=O)N[C@@H]3C[C@@H]3F)cnc12 (mixture of isomers) [Example K538]
1 to 10	1 to 10	1 to 10	CNc1cc(Nc2cccn(-c3ccc(C(=O)NC4CCC(C(=O)N5CCC6(CN(CC#Cc7ccc8c(c7)n(C)c(=O)n8C7CCC(=O)NC7=O)C6)C5)CC4)cn3)c2=O)nn2c(C(=O)N[C@@H]3C[C@@H]3F)cnc12 (stereo partly drawn) [Example K444]
> 100	> 100	> 100	CNc1cc(-c2cnn(C3CCC(CN4CCC(CN(C)c5ccc6c(c5)n(C)c(=O)n6C5CCC(=O)NC5=O)CC4)CC3)c2)nn2c(C(=O)NC3C[C@@H]3F)cnc12 (stereo partly drawn) [Example K364]
1 to 10	> 100	> 100	CNc1cc(Nc2cccc(CN3CC4(CCN(c5ccc(-c6ccc7c(c6)n(C)c(=O)n7C6CCC(=O)NC6=O)cn5)CC4)C3)c2)nn2c(C(=O)NC3CC3)cnc12 (stereo not drawn) [Example K586]
< 1	> 100	> 100	CNc1cc(Nc2cccc(-c3ccc(C(=O)N4CCN([C@H]5CC[C@H](c6ccc(-c7ccc8c(c7)n(C)c(=O)n8C7CCC(=O)NC7=O)cc6)CC5)CC4)cn3)c2)nn2c(C(=O)N[C@@H]3C[C@@H]3F)cnc12 (stereo partly drawn) [Example K632]

DC50 (TYK2 [1]) [nM]	DC50 (TYK2 [2]) [nM]	DC50 (TYK2 [3]) [nM]	SMILES
> 100	10 to 100	> 100	COc1c(Nc2cc(Nc3cc(C(=O)NCCCCc4cccc5c4n(C)c(=O)n5C4CCC(=O)NC4=O)ccn3)ncc2C(=O)NC2CC2)cccc1-c1ncc(F)cn1 (stereo not drawn) [Example K179]
< 1	> 100	> 100	CNc1cc(Nc2cccn(-c3ccc(C(=O)N4CCC(CN(C)C5CCN(c6ccc7c(c6)n(C)c(=O)n7C6CCC(=O)NC6=O)CC5)C4)cn3)c2=O)nn2c(C(=O)N[C@@H]3C[C@@H]3F)cnc12 (stereo partly drawn) [Example K445]
> 100	> 100	> 100	CNc1cc(Nc2cccc(CN(C)C3CCN(c4ccc5c(c4)n(C)c(=O)n5C4CCC(=O)NC4=O)CC3)c2)nn2c(C(=O)NC3CC3)cnc12 (stereo not drawn) [Example K593]
> 100	> 100	> 100	CNc1cc(-c2ccc(C(=O)NCCCCc3cccc4c3n(C)c(=O)n4C3CCC(=O)NC3=O)cc2)nn2c(C(=O)N[C@@H]3C[C@@H]3F)cnc12 (stereo partly drawn) [Example K299]
> 100	< 1	> 100	CNc1cc(Nc2cccn(-c3ccc(C(=O)NCCCCCCCc4ccc5c(c4)n(C)c(=O)n5C4CCC(=O)NC4=O)cn3)c2=O)nn2c(C(=O)N[C@@H]3C[C@@H]3F)cnc12 (stereo partly drawn) [Example K260]
> 100	1 to 10	> 100	CNc1cc(Nc2cccn(-c3ccc(C(=O)N(C)CCCOCCCc4cccc5c4n(C)c(=O)n5C4CCC(=O)NC4=O)cn3)c2=O)nn2c(C(=O)N[C@@H]3C[C@@H]3F)cnc12 (stereo partly drawn) [Example K369]
> 100	1 to 10	> 100	CNc1cc(Nc2cccn(-c3cccc(C(=O)NCCCCc4ccc5c(c4)n(C)c(=O)n5C4CCC(=O)NC4=O)c3)c2=O)nn2c(C(=O)N[C@@H]3C[C@@H]3F)cnc12 (stereo partly drawn) [Example K219]
> 100	< 1	< 1	CNC(=O)c1cnc(Nc2ccc(CN3CC4(CCN(c5cccc6c5n(C)c(=O)n6C5CCC(=O)NC5=O)CC4)C3)cn2)cc1Nc1cccc(-c2ncc(F)cn2)c1OC (stereo not drawn) [Example K150]
1 to 10	> 100	< 1	CNC1=CC(Nc2cccc(-c3ccc(CN4CC5(CCN(c6cccc7c(C8CCC(=O)NC8=O)cccc67)CC5)C4)cn3)c2)=NC2C(C(=O)N[C@@H]3C[C@@H]3F)=CN=C12 (stereo partly drawn) [Example K512]
> 100	< 1	< 1	CNc1cc(Nc2cccn(-c3ccc(C(=O)N(C)CC4CCN(Cc5cccc6c5n(C)c(=O)n6C5CCC(=O)NC5=O)CC4)cn3)c2=O)nn2c(C(=O)N[C@@H]3C[C@@H]3F)cnc12 (stereo partly drawn) [Example K281]
> 100	> 100	> 100	CNc1cc(-c2cccc(C(=O)NCCCCCCc3ccc4c(c3)n(C)c(=O)n4C3CCC(=O)NC3=O)c2)nn2c(C(=O)N[C@@H]3C[C@@H]3F)cnc12 (stereo partly drawn) [Example K306]
> 100	> 100	> 100	Cn1c(=O)n(C2CCC(=O)NC2=O)c2cccc(CCOCCOCCOCCOCCOCCOCCNc3cc(Nc4cccn(-c5ccccn5)c4=O)nn4c(C(=O)N[C@@H]5C[C@@H]5F)cnc34)c21 (stereo partly drawn) [Example K213]
1 to 10	> 100	> 100	CNc1cc(Nc2cccc(CN3CC4(CCN(c5cccc6c5n(C)c(=O)n6C5CCC(=O)NC5=O)CC4)C3)c2)nn2c(C(=O)NC3CC3)cnc12 (stereo not drawn) [Example K592]
< 1	< 1	> 100	CNC(=O)c1cnc(Nc2ccc(CN(C)C3CN(c4ccc5c(c4)n(C)c(=O)n5C4CCC(=O)NC4=O)C3)cn2)cc1Nc1cccc(-c2ncc(F)cn2)c1OC (stereo not drawn) [Example K153]
1 to 10	> 100	> 100	CNC1=CC(Nc2cccc(-c3ccc(CN4CCN(CC5CCN(C(=O)c6ccc(Cl)c(N7CCC(=O)NC7=O)c6)CC5)CC4)cn3)c2)=NC2C(C(=O)N[C@@H]3C[C@@H]3F)=CN=C12 (stereo partly drawn) [Example K496]
< 1	< 1	> 100	CNC(=O)c1cnc(Nc2ccc(CN3CCN(CC#Cc4ccc5c(c4)n(C)c(=O)n5C4CCC(=O)NC4=O)CC3)cn2)cc1Nc1cccc(-c2ncc(F)cn2)c1OC (stereo not drawn) [Example K701]
> 100	> 100	> 100	Cn1c(=O)n(C2CCC(=O)NC2=O)c2ccc(-c3ccc(N4CCN(Cc5ccc(-c6cccc(Oc7ccc8ncc(C(=O)NC9CC9)n8n7)c6)nc5)CC4)cc3)cc21 (stereo not drawn) [Example K456]
> 100	> 100	1 to 10	CNC(=O)c1cnc(Nc2ccc(CN3CC(N(C)c4cccc5c4n(C)c(=O)n5C4CCC(=O)NC4=O)C3)cn2)cc1Nc1cccc(-c2ncc(F)cn2)c1OC (stereo not drawn) [Example K161]
